# In patent publication US20060052435A1, “Selective dopamin d3 receptor agonists for the treatment of sexual dysfunction” (priority 2001, published 2006):
# Test system: conscious rats
# Assay: conscious rat models of copulatory behaviour
# Details: in vivo
# Procedure: All studies of sexual behaviour must be performed on adult rats (˜12 weeks of age/200 g weight). Sexual behaviour tests are performed under red light during the dark phase of the light/dark cycle starting at 2 h after lights off and videotaped for further analysis (observer presence can unfavourably alter sexual behaviour).
# Males (N=8-10) are placed in a clear aquarium (or home cage) for at least 15 min acclimation period. An estrous female is introduced into the mating arena. The following information is recorded during the 45 min test: latency to begin mounting behaviour, latency to first intromission, latency to first ejaculation (calculated from first intromission), number of intromissions to ejaculation, number of mounts until ejaculation, and the number of ejaculations during the test period. Males are observed during a single 45 min test with an estrous WT female.
# The rats are presented with a receptive female at […], i.e. every third day (having 2 clear days between presentations), until completing at least 6 days of baseline determination. By then, vigorous behaviour should be expected. Rats that display sluggish copulatory behaviour are used as a model of HSDD.
# For all the sexual behaviour tests, the males are placed in an observation arena (50-60 cm diameter for rats). 3 to 4 minutes after placing the male in the arena, a receptive female (ovariectomised, bearing a 7 mm silastic implant of oestradiol benzoate gives the best results without complications) is introduced to the arena and the following parameters noted:
# Mount Latency: time (in seconds) taken between introduction of female and first mount. A maximum time of 15 minutes (900 seconds) is allowed, and the test terminated if no mounts are recorded within that time. Mount latency is related to sexual drive/desire.
# Intromission Latency: time (in seconds) taken between introduction of female and first intromission. A maximum time of 15 minutes (900 seconds) is allowed, and the test terminated if no intromissions are recorded within that time. Intromission latency is related to sexual drive/desire.
# Copulatory effectsiveness:—no of intromissions/(no of mounts+intromissions). This acts as a measure of erectile function.
# The test, in the rat, is carried out in a circular arena of 90 cm diameter surrounded by a 30 cm high wall (these dimensions would need to be adapted for mice). Two small cages with wire-mesh front (15×15 cm) are fixed into the wall such that the front of the cage is “flush” with the wall and the 2 cages are opposite each other. […] The difference in the percentage of time spent investigating male minus female is calculated, out of the total time spent investigating stimuli animals. […] Female rats would then be used intact and tested in late proestrous, as determined by vaginal smears. […]
compound,measurement,value
"CCCN1CCO[C@H](c2cccc(O)c2)C1.Cl [Example 8, R-(−)-3-(4-Propylmorpholin-2-yl)phenol hydrochloride]",copulatory behaviour and copulatory effectiveness in male rats,beneficially enhances
same,mount latency and intromission latency in sluggish males (model of HSDD),reduces
same,proceptive and receptive behaviours in female rats,beneficially enhances
same,sexual desire in oestrogen primed ovarectomised animals (model of HSDD),restores
